# In ChEMBL document CHEMBL3112480, “γ-Alkylidene-γ-lactones and isobutylpyrrol-2(5H)-ones analogues to rubrolides as inhibitors of biofilm formation by gram-positive and gram-negative bacteria” (Bioorg Med Chem Lett, 2014):
# How the values were obtained:
# Pseudomonas aeruginosa [1] = experiment: Antibacterial activity against Pseudomonas aeruginosa ATCC 27853 assessed as inhibition of biofilm formation after 20 hrs by crystal-violet staining method; assay type: functional, organism-based; settings: for IC50: ATCC 27853, 20 h
# Pseudomonas aeruginosa [2] = experiment: Antibacterial activity against Pseudomonas aeruginosa ATCC 27853 assessed as effect on planktonic growth at 5.5 ug/ml after 20 hrs relative to control; assay type: functional
# Staphylococcus aureus [3] = experiment: Antibacterial activity against Staphylococcus aureus ATCC 25923 assessed as effect on planktonic growth at 2.73 ug/ml after 20 hrs relative to control; assay type: functional
# Streptococcus mutans [4] = experiment: Antibacterial activity against Streptococcus mutans ATCC 25175 assessed as effect on planktonic growth at 10.9 ug/ml after 20 hrs relative to control; assay type: functional
# Staphylococcus aureus [5] = experiment: Antibacterial activity against Staphylococcus aureus ATCC 25923 assessed as effect on planktonic growth at 1.37 ug/ml after 20 hrs relative to control; assay type: functional
# [6] = system: Staphylococcus epidermidis; experiment: Antibacterial activity against Staphylococcus epidermidis ATCC 35547 assessed as effect on planktonic growth at 0.34 ug/ml after 20 hrs relative to control; assay type: functional
# Streptococcus mutans [7] = experiment: Antibacterial activity against Streptococcus mutans ATCC 25175 assessed as effect on planktonic growth at 0.34 ug/ml after 20 hrs relative to control; assay type: functional
# [8] = system: Staphylococcus epidermidis; experiment: Antibacterial activity against Staphylococcus epidermidis ATCC 35547 assessed as effect on planktonic growth at 0.68 ug/ml after 20 hrs relative to control; assay type: functional
# Pseudomonas aeruginosa [9] = experiment: Antibacterial activity against Pseudomonas aeruginosa ATCC 27853 assessed as effect on planktonic growth at 2.73 ug/ml after 20 hrs relative to control; assay type: functional
# Staphylococcus aureus [10] = experiment: Antibacterial activity against Staphylococcus aureus ATCC 25923 assessed as effect on planktonic growth at 21.9 ug/ml after 20 hrs relative to control; assay type: functional
# Streptococcus mutans [11] = experiment: Antibacterial activity against Streptococcus mutans ATCC 25175 assessed as effect on planktonic growth at 0.68 ug/ml after 20 hrs relative to control; assay type: functional
# Staphylococcus aureus [12] = experiment: Antibacterial activity against Staphylococcus aureus ATCC 25923 assessed as effect on planktonic growth at 5.5 ug/ml after 20 hrs relative to control; assay type: functional
# [13] = system: Staphylococcus epidermidis; experiment: Antibacterial activity against Staphylococcus epidermidis ATCC 35547 assessed as effect on planktonic growth at 43.8 ug/ml after 20 hrs relative to control; assay type: functional
# [14] = system: Staphylococcus epidermidis; experiment: Antibacterial activity against Staphylococcus epidermidis ATCC 35547 assessed as inhibition of biofilm formation after 20 hrs by crystal-violet staining method; assay type: functional, organism-based; settings: for IC50: ATCC 35547, 20 h
# Streptococcus mutans [15] = experiment: Antibacterial activity against Streptococcus mutans ATCC 25175 assessed as effect on planktonic growth at 87.5 ug/ml after 20 hrs relative to control; assay type: functional
# [16] = system: Staphylococcus epidermidis; experiment: Antibacterial activity against Staphylococcus epidermidis ATCC 35547 assessed as effect on planktonic growth at 0.17 ug/ml after 20 hrs relative to control; assay type: functional
# Pseudomonas aeruginosa [17] = experiment: Antibacterial activity against Pseudomonas aeruginosa ATCC 27853 assessed as effect on planktonic growth at 87.5 ug/ml after 20 hrs relative to control; assay type: functional
# Pseudomonas aeruginosa [18] = experiment: Antibacterial activity against Pseudomonas aeruginosa ATCC 27853 assessed as effect on planktonic growth at 0.68 ug/ml after 20 hrs relative to control; assay type: functional
# Streptococcus mutans [19] = experiment: Antibacterial activity against Streptococcus mutans ATCC 25175 assessed as effect on planktonic growth at 2.73 ug/ml after 20 hrs relative to control; assay type: functional
# Staphylococcus aureus [20] = experiment: Antibacterial activity against Staphylococcus aureus ATCC 25923 assessed as effect on planktonic growth at 10.9 ug/ml after 20 hrs relative to control; assay type: functional
# Pseudomonas aeruginosa [21] = experiment: Antibacterial activity against Pseudomonas aeruginosa ATCC 27853 assessed as effect on planktonic growth at 43.8 ug/ml after 20 hrs relative to control; assay type: functional
# Staphylococcus aureus [22] = experiment: Antibacterial activity against Staphylococcus aureus ATCC 25923 assessed as effect on planktonic growth at 0.34 ug/ml after 20 hrs relative to control; assay type: functional
# [23] = system: Staphylococcus epidermidis; experiment: Antibacterial activity against Staphylococcus epidermidis ATCC 35547 assessed as effect on planktonic growth at 2.73 ug/ml after 20 hrs relative to control; assay type: functional
# Pseudomonas aeruginosa [24] = experiment: Antibacterial activity against Pseudomonas aeruginosa ATCC 27853 assessed as effect on planktonic growth at 0.34 ug/ml after 20 hrs relative to control; assay type: functional
# Streptococcus mutans [25] = experiment: Antibacterial activity against Streptococcus mutans ATCC 25175 assessed as effect on planktonic growth at 1.37 ug/ml after 20 hrs relative to control; assay type: functional
# Pseudomonas aeruginosa [26] = experiment: Antibacterial activity against Pseudomonas aeruginosa ATCC 27853 assessed as effect on planktonic growth at 0.17 ug/ml after 20 hrs relative to control; assay type: functional
# [27] = system: Staphylococcus epidermidis; experiment: Antibacterial activity against Staphylococcus epidermidis ATCC 35547 assessed as effect on planktonic growth at 1.37 ug/ml after 20 hrs relative to control; assay type: functional
# Streptococcus mutans [28] = experiment: Antibacterial activity against Streptococcus mutans ATCC 25175 assessed as effect on planktonic growth at 43.8 ug/ml after 20 hrs relative to control; assay type: functional
# Staphylococcus aureus [29] = experiment: Antibacterial activity against Staphylococcus aureus ATCC 25923 assessed as effect on planktonic growth at 43.8 ug/ml after 20 hrs relative to control; assay type: functional
# Pseudomonas aeruginosa [30] = experiment: Antibacterial activity against Pseudomonas aeruginosa ATCC 27853 assessed as effect on planktonic growth at 21.9 ug/ml after 20 hrs relative to control; assay type: functional
# Staphylococcus aureus [31] = experiment: Antibacterial activity against Staphylococcus aureus ATCC 25923 assessed as effect on planktonic growth at 0.68 ug/ml after 20 hrs relative to control; assay type: functional
# [32] = system: Staphylococcus epidermidis; experiment: Antibacterial activity against Staphylococcus epidermidis ATCC 35547 assessed as effect on planktonic growth at 10.9 ug/ml after 20 hrs relative to control; assay type: functional
# Pseudomonas aeruginosa [33] = experiment: Antibacterial activity against Pseudomonas aeruginosa ATCC 27853 assessed as effect on planktonic growth at 10.9 ug/ml after 20 hrs relative to control; assay type: functional
# Pseudomonas aeruginosa [34] = experiment: Antibacterial activity against Pseudomonas aeruginosa ATCC 27853 assessed as effect on planktonic growth at 1.37 ug/ml after 20 hrs relative to control; assay type: functional
# [35] = system: Staphylococcus epidermidis; experiment: Antibacterial activity against Staphylococcus epidermidis ATCC 35547 assessed as effect on planktonic growth at 5.5 ug/ml after 20 hrs relative to control; assay type: functional
# Staphylococcus aureus [36] = experiment: Antibacterial activity against Staphylococcus aureus ATCC 25923 assessed as effect on planktonic growth at 87.5 ug/ml after 20 hrs relative to control; assay type: functional
# Streptococcus mutans [37] = experiment: Antibacterial activity against Streptococcus mutans ATCC 25175 assessed as effect on planktonic growth at 21.9 ug/ml after 20 hrs relative to control; assay type: functional
# [38] = system: Staphylococcus epidermidis; experiment: Antibacterial activity against Staphylococcus epidermidis ATCC 35547 assessed as effect on planktonic growth at 21.9 ug/ml after 20 hrs relative to control; assay type: functional
# Streptococcus mutans [39] = experiment: Antibacterial activity against Streptococcus mutans ATCC 25175 assessed as effect on planktonic growth at 0.17 ug/ml after 20 hrs relative to control; assay type: functional
# Streptococcus mutans [40] = experiment: Antibacterial activity against Streptococcus mutans ATCC 25175 assessed as effect on planktonic growth at 5.5 ug/ml after 20 hrs relative to control; assay type: functional
# [41] = system: Staphylococcus epidermidis; experiment: Antibacterial activity against Staphylococcus epidermidis ATCC 35547 assessed as effect on planktonic growth at 87.5 ug/ml after 20 hrs relative to control; assay type: functional
# Staphylococcus aureus [42] = experiment: Antibacterial activity against Staphylococcus aureus ATCC 25923 assessed as effect on planktonic growth at 0.17 ug/ml after 20 hrs relative to control; assay type: functional
smiles,measurement,setting,value
COc1ccc(C)cc1C1=C(Br)C(=O)N(CC(C)C)C1(O)Cc1ccccc1Cl (stereo not drawn),inhibition,Pseudomonas aeruginosa [1],Dose-dependent effect
same,IC50,Pseudomonas aeruginosa [1],> 87.5 µg/mL
same,Activity,Pseudomonas aeruginosa [2],-17.6%
same,Activity,Staphylococcus aureus [3],0.5%
same,Activity,Streptococcus mutans [4],28.7%
same,Activity,Staphylococcus aureus [5],-3%
same,Activity,[6],24.8%
same,Activity,Streptococcus mutans [7],11.1%
same,Activity,[8],2.7%
same,Activity,Pseudomonas aeruginosa [9],-20.3%
same,Activity,Staphylococcus aureus [10],-10.75%
same,Activity,Streptococcus mutans [11],13%
same,Activity,Staphylococcus aureus [12],5%
same,Activity,[13],48.3%
same,inhibition,[14],Dose-dependent effect
same,IC50,[14],> 87.5 µg/mL
same,Activity,Streptococcus mutans [15],15.3%
same,Activity,[16],6%
same,Activity,Pseudomonas aeruginosa [17],32.5%
same,Activity,Pseudomonas aeruginosa [18],-4.7%
same,Activity,Streptococcus mutans [19],30.7%
same,Activity,Staphylococcus aureus [20],-6.75%
same,Activity,Pseudomonas aeruginosa [21],17.1%
same,Activity,Staphylococcus aureus [22],-0.5%
same,Activity,[23],2.8%
same,Activity,Pseudomonas aeruginosa [24],-4.5%
same,Activity,Streptococcus mutans [25],12.6%
same,Activity,Pseudomonas aeruginosa [26],-2.5%
same,Activity,[27],6.4%
same,Activity,Streptococcus mutans [28],27.2%
same,Activity,Staphylococcus aureus [29],2.25%
same,Activity,Pseudomonas aeruginosa [30],-5.6%
same,Activity,Staphylococcus aureus [31],-2.5%
same,Activity,[32],22.6%
same,Activity,Pseudomonas aeruginosa [33],-17.5%
same,Activity,Pseudomonas aeruginosa [34],-7.4%
same,Activity,[35],16.5%
same,Activity,Staphylococcus aureus [36],16.5%
same,Activity,Streptococcus mutans [37],39.8%
same,Activity,[38],34.6%
same,Activity,Streptococcus mutans [39],7.3%
same,Activity,Streptococcus mutans [40],35.6%
same,Activity,[41],60.7%
same,Activity,Staphylococcus aureus [42],-1.25%
COc1ccc(Br)cc1C1=C(Br)C(=O)N(CC(C)C)/C1=C\c1cccc(Cl)c1,inhibition,Pseudomonas aeruginosa [1],Dose-dependent effect
same,IC50,Pseudomonas aeruginosa [1],> 87.5 µg/mL
same,Activity,Pseudomonas aeruginosa [2],-3.1%
same,Activity,Staphylococcus aureus [3],-2.7%
same,Activity,Streptococcus mutans [4],-19.1%
same,Activity,Staphylococcus aureus [5],-7.2%
same,Activity,[6],6.4%
same,Activity,Streptococcus mutans [7],6.7%
same,Activity,[8],5.6%
same,Activity,Pseudomonas aeruginosa [9],0.1%
same,Activity,Staphylococcus aureus [10],5.1%
same,Activity,Streptococcus mutans [11],11.4%
same,Activity,Staphylococcus aureus [12],0.5%
same,Activity,[13],84.7%
same,inhibition,[14],Dose-dependent effect
same,IC50,[14],31.1 µg/mL
same,Activity,Streptococcus mutans [15],-4%
same,Activity,[16],2.2%
same,Activity,Pseudomonas aeruginosa [17],14.6%
same,Activity,Pseudomonas aeruginosa [18],-0.3%
same,Activity,Streptococcus mutans [19],-6.2%
same,Activity,Staphylococcus aureus [20],2.4%
same,Activity,Pseudomonas aeruginosa [21],-5.6%
same,Activity,Staphylococcus aureus [22],-1.1%
same,Activity,[23],6.8%
same,Activity,Pseudomonas aeruginosa [24],-4.4%
same,Activity,Streptococcus mutans [25],2.7%
same,Activity,Pseudomonas aeruginosa [26],0.6%
same,Activity,[27],9.8%
same,Activity,Streptococcus mutans [28],-15.3%
same,Activity,Staphylococcus aureus [29],16.3%
same,Activity,Pseudomonas aeruginosa [30],-4.8%
same,Activity,Staphylococcus aureus [31],1.1%
same,Activity,[32],23.2%
same,Activity,Pseudomonas aeruginosa [33],-9%
same,Activity,Pseudomonas aeruginosa [34],3%
same,Activity,[35],2.1%
same,Activity,Staphylococcus aureus [36],18.4%
same,Activity,Streptococcus mutans [37],-10.1%
same,Activity,[38],57.9%
same,Activity,Streptococcus mutans [39],-1.2%
same,Activity,Streptococcus mutans [40],1.5%
same,Activity,[41],72.2%
same,Activity,Staphylococcus aureus [42],-3.5%
